Assay results reported in patent US11629143B2, “HipK4 inhibitors and uses thereof” (Vibliome Therapeutics, LLC, priority 2020, dated 2023).

Key:
MER = target: T1, MER (Homo sapiens, UniProt Q12866); experiment: Kinase panel (mobility shift); format: biochemical
T1 sequence (Q12866 21-999): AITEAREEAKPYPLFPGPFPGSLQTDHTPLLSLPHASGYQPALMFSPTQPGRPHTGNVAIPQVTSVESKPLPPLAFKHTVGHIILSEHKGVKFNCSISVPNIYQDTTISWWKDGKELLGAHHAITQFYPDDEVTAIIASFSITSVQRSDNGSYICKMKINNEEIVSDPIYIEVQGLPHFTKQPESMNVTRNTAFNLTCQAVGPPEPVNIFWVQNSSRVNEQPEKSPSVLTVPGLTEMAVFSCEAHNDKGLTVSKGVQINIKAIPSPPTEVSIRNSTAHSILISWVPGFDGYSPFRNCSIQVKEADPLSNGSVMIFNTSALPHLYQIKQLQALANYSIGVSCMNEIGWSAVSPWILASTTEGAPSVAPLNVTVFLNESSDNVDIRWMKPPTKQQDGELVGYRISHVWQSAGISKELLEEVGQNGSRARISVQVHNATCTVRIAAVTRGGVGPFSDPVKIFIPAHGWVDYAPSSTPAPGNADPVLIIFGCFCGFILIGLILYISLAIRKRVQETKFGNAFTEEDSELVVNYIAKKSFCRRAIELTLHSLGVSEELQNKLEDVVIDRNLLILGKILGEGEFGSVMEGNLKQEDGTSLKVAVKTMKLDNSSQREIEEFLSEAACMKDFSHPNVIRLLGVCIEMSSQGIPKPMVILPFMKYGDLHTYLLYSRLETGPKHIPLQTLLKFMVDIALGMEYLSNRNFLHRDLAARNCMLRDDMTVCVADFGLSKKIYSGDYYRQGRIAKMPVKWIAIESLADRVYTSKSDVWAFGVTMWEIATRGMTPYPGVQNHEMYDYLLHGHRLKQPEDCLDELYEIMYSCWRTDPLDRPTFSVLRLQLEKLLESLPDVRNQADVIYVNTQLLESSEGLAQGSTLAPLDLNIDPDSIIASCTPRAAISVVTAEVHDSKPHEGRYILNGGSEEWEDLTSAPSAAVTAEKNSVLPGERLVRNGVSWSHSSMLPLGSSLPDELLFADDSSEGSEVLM
Procedure, shortened: (§1)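 Microfluidic mobility-shift readout: product and substrate peaks are resolved by charge, and their fluorescence is compared to give enzyme activity. Enzyme, fluorescent substrate and test compound are reacted, then terminated before chip loading. Values are binned at 5 um: A 95% or greater, B 90%-94%, C 80%-89%.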

TAOK2 = target: T2, TAOK2 (Homo sapiens, UniProt Q9UL54); experiment: Kinase panel (mobility shift); format: biochemical
T2 sequence (Q9UL54 1-1235): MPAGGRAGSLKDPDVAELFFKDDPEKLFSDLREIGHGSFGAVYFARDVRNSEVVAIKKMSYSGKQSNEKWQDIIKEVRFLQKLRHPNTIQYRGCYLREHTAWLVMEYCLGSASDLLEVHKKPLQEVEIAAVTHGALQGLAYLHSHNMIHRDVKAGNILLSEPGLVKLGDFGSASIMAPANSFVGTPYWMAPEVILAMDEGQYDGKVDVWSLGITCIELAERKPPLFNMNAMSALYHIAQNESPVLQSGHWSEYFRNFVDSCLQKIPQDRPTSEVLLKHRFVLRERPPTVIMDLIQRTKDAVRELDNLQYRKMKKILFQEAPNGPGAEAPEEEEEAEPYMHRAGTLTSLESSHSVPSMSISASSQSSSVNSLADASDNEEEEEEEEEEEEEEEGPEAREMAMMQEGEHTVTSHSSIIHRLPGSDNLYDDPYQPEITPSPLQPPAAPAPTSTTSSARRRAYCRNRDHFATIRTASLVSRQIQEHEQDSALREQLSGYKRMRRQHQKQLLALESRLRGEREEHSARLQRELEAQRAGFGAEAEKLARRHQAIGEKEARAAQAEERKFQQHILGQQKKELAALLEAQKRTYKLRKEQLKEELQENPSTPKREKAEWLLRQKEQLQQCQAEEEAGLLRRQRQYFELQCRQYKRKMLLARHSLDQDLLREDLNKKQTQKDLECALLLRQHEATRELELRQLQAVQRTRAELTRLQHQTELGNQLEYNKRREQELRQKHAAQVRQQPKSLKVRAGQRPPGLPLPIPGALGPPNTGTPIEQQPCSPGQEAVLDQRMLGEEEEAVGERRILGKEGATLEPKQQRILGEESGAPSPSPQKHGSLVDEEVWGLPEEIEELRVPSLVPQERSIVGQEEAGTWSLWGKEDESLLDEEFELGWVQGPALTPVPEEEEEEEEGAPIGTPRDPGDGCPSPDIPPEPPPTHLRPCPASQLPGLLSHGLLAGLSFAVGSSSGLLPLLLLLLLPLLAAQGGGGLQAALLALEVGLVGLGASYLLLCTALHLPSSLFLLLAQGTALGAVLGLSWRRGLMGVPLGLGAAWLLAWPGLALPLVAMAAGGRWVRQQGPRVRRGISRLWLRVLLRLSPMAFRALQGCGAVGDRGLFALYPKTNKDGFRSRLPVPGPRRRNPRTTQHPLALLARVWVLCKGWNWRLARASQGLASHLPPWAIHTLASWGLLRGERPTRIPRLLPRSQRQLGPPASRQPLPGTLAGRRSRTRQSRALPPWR
Procedure, shortened: as §1

Row | Compound | inhibition at 5 µM (MER) | inhibition at 5 µM (TAOK2)
1 | CSc1nc(C(=O)Nc2ccc(Oc3ccnc(N)c3Cl)c(F)c2)c(-c2ccc(F)cc2)o1 [Compound 1] | < 50% | < 50%
2 | CSc1nc(C(=O)Nc2ccc(Oc3cc4cnn(C)c4cc3Br)c(F)c2)c(-c2ccc(F)cc2)o1 [Compound 2] | < 50% | < 50%
3 | CNC(=O)c1cc(Oc2ccc(NC(=O)c3nc(SC)oc3-c3ccc(F)cc3Cl)cc2)ccn1 [Compound 3] | 90 to 94% | < 50%
4 | CNC(=O)c1cc(Oc2ccc(NC(=O)c3nc(SC)oc3-c3ccc(F)c(F)c3)cc2)ccn1 [Compound 4] | 50 to 79% | < 50%
5 | CNC(=O)c1cc(Oc2ccc(NC(=O)c3nc(SC)oc3-c3ccc(Cl)s3)cc2)ccn1 [Compound 5] | < 50% | < 50%
6 | CNC(=O)c1cc(Oc2ccc(NC(=O)c3nc(SC)oc3-c3ccc(F)cc3F)cc2)ccn1 [Compound 6] | 90 to 94% | < 50%
7 | CNC(=O)c1cc(Oc2ccc(NC(=O)c3nc(SC)oc3-c3ccc(OC)cc3)cc2)ccn1 [Compound 7] | < 50% | < 50%
8 | CSc1nc(C(=O)Nc2ccc(Oc3ccnc(-c4cnn(C)c4)c3)c(F)c2)c(-c2ccc(F)cc2)o1 [Compound 11] | 90 to 94% | < 50%
9 | CNC(=O)c1cc(Oc2ccc(NC(=O)c3nc(SC)oc3-c3ccc(F)cc3F)cc2F)ccn1 [Compound 12] | 80 to 89% | < 50%
10 | CNC(=O)c1cc(Oc2ccc(NC(=O)c3nc(S(C)(=O)=O)sc3-c3ccc(F)cc3)cc2F)ccn1 [Compound 13] | 80 to 89% | < 50%
11 | CNC(=O)c1cc(Oc2ccc(NC(=O)c3nc(NC)oc3-c3ccc(F)cc3)cc2F)ccn1 [Compound 14] | 50 to 79% | 80 to 89%
12 | CNC(=O)c1cc(Oc2ccc(NC(=O)c3nc(OC)oc3-c3ccc(F)cc3)cc2F)ccn1 [Compound 15] | 50 to 79% | < 50%
13 | CNC(=O)c1cc(Oc2ccc(NC(=O)c3nc(SC)oc3-c3ccc(F)s3)cc2F)ccn1 [Compound 16] | < 50% | < 50%
14 | CNC(=O)c1cc(Oc2ccc(NC(=O)c3nc(NC)oc3-c3ccc(F)s3)cc2F)ccn1 [Compound 17] | < 50% | < 50%
15 | CNC(=O)c1cc(Oc2c(F)cc(NC(=O)c3nc(NC)sc3-c3ccc(F)cc3)cc2F)ccn1 [Compound 19] | 50 to 79% | < 50%
16 | CNC(=O)c1cc(Oc2ccc(NC(=O)c3nc(NC)sc3-c3ccc(F)cc3F)cc2F)ccn1 [Compound 21] | < 50% | < 50%
17 | CNC(=O)c1cc(Oc2ccc(NC(=O)c3nc(NC)sc3-c3ccc(F)cc3C)cc2F)ccn1 [Compound 23] | 50 to 79% | 50 to 79%
18 | CNC(=O)c1cc(Oc2ccc(NC(=O)c3nc(OC)oc3-c3ccc(F)c(F)c3)cc2F)ccn1 [Compound 24] | < 50% | < 50%
19 | CNC(=O)c1cc(Oc2ccc(NC(=O)c3nc(OC)oc3-c3ccc(F)s3)cc2F)ccn1 [Compound 25] | < 50% | < 50%

Row | Compound | inhibition at 5 µM (MER) | inhibition at 5 µM (TAOK2)
20 | CNC(=O)c1cc(Oc2ccc(NC(=O)c3nc(C4CC4)oc3-c3ccc(F)cc3)cc2F)ccn1 [Compound 26] | 80 to 89% | 50 to 79%
21 | CSc1nc(C(=O)Nc2ccc(Oc3ccnc(C(=O)NC4CNC4)c3)c(F)c2)c(-c2ccc(F)s2)o1 [Compound 27] | < 50% | < 50%
22 | CSc1nc(C(=O)Nc2ccc(Oc3ccnc(C(=O)NC4COC4)c3)c(F)c2)c(-c2ccc(F)s2)o1 [Compound 28] | < 50% | < 50%
23 | CSc1nc(C(=O)Nc2ccc(Oc3ccnc(C(=O)NC4CNC4)c3)c(F)c2)c(-c2ccc(F)cc2)o1 [Compound 29] | 50 to 79% | 50 to 79%
24 | CNC(=O)c1cc(Oc2ccc(NC(=O)c3nc(COC)oc3-c3ccc(F)cc3)cc2F)ccn1 [Compound 30] | 80 to 89% | 50 to 79%
25 | CSc1nc(C(=O)Nc2ccc(Oc3ccnc(C(=O)NC4COC4)c3)c(F)c2)c(-c2ccc(F)cc2)o1 [Compound 31] | < 50% | < 50%
26 | CNC(=O)c1cc(Oc2ccc(NC(=O)c3nc(OC4CC4)oc3-c3ccc(F)cc3)cc2F)ccn1 [Compound 32] | 80 to 89% | 50 to 79%
27 | [2H]C([2H])([2H])NC(=O)c1cc(Oc2ccc(NC(=O)c3nc(SC)oc3-c3ccc(F)c(F)c3)cc2F)ccn1 [Compound 33] | < 50% | < 50%
28 | CNC(=O)c1cc(Oc2ccc(NC(=O)c3nc(SC(C)C)oc3-c3ccc(F)cc3)cc2F)ccn1 [Compound 34] | 90 to 94% | 50 to 79%
29 | [2H]C([2H])([2H])NC(=O)c1cc(Oc2ccc(NC(=O)c3nc(SC)oc3-c3ccc(F)s3)cc2F)ccn1 [Compound 35] | < 50% | < 50%
30 | CNC(=O)c1ccc(Oc2ccc(NC(=O)c3nc(Cl)oc3-c3ccc(F)cc3)c(F)c2)cn1 [Compound 36] | < 50% | < 50%
31 | CSc1nc(C(=O)Nc2ccc(Oc3ccnc(C(=O)NC4COC4)c3)c(F)c2)c(-c2ccc(F)c(F)c2)o1 [Compound 37] | < 50% | < 50%
32 | CNC(=O)c1cc(Oc2ccc(NC(=O)c3nc(OCC(F)(F)F)oc3-c3ccc(F)cc3)cc2F)ccn1 [Compound 38] | 80 to 89% | < 50%
33 | COc1nc(C(=O)Nc2ccc(Oc3ccnc(C(=O)NC4COC4)c3)c(F)c2)c(-c2ccc(F)cc2)o1 [Compound 39] | < 50% | < 50%
34 | CSc1nc(C(=O)Nc2ccc(Oc3ccnc(C(=O)NCC(F)(F)F)c3)c(F)c2)c(-c2ccc(F)cc2)o1 [Compound 40] | < 50% | < 50%
35 | CSc1nc(C(=O)Nc2ccc(Oc3ccnc(C(=O)NCCN(C)C)c3)c(F)c2)c(-c2ccc(F)cc2)o1 [Compound 41] | 50 to 79% | < 50%
36 | CSc1nc(C(=O)Nc2ccc(Oc3ccnc(C(=O)NC4CCN(C)CC4)c3)c(F)c2)c(-c2ccc(F)cc2)o1 [Compound 42] | < 50% | < 50%
37 | COc1nc(C(=O)Nc2ccc(Oc3ccnc(C(=O)NCC(F)(F)F)c3)c(F)c2)c(-c2ccc(F)cc2)o1 [Compound 43] | < 50% | < 50%
